Test results from patent US7629126B2, “PIM-3 kinase as a target for type 2 diabetes mellitus” (Sanofi-Aventis Deutschland GmbH, priority 2002, dated 2009).
Several values for one entry are separate records, joined by “and”; a condition that tells them apart may be missing. Equal entries are not always repeated.

Legend:
PIM-3 [1] = assay: Gene expression of PIM-3 in 3T3-L1 adipocytes treated with antidiabetic drugs (PPARγ agonists), Affymetrix array; type: cell-based, murine
Method: 3T3-L1 preadipocytes were grown at 37° C. in 10% CO2 in Dulbecco's modified Eagle's medium (DMEM) containing 1 g/l glucose and 10% fetal calf serum (FCS). For differentiation into mature adipocytes, confluent preadipocytes were cultured for four days in DMEM supplemented with 4.5 g/l glucose, 10% FCS, 50 μg/ml ascorbic acid, 1 μM biotin, 17 μM pantothenic acid (=basal medium), 500 μM 3-isobutylmethylxanthine, 0.25 μM dexamethasone and 1 μg/ml human recombinant insulin. During the four day treatment the medium was changed once.
Differentiated 3T3-L1 cells were maintained in basal medium for one additional day and subsequently kept in serum-free basal medium for four hours. Then, PPARγ agonists diluted in basal medium were added to the adipocytes as described below centrations and conditions see table 5):
RNA was isolated using the TRIzol reagent (Life Technologies, Karlsruhe, Germany) and treated with DNase I by applying the DNA-free kit (Ambion, Austin, Tex., US).
Further purification of the RNA was achieved using the RNeasy mini kit (Qiagen, Hilden, Germany) and quality/quantity control was done with the 2100Bioanalyzer (Agilent, Böblingen, Germany). 10 μg of total RNA was converted into biotinylated cRNA according to the GeneChip expression analysis technical manual (Affymetrix, Santa Clara, Calif., US). Briefly, first and second strand synthesis was performed by applying the SuperScript double stranded cDNA synthesis kit (Life Technologies, Kardsruhe, Germany) and biotin labeled cRNA was produced with the BioArray RNA transcript labeling kit (Enzo Diagnostics, Framingdale, N.Y., US). 10 μg of cRNA was fragmented by heat, added to the GeneChip eukaryotic hybridization control solution (Affymetrix) and hybridized to a GeneChip MG-U74Av2 array (Affymetrix) by rotating for 16 hours at 45° C. Washing, staining and scanning of the array was carried outwith standard procedures using the hardware provided by Affymetrix. Raw data was analyzed by applying the microarray suite version 4.0.1 software (Affymetrix, see above).
The entire experiment was repeated twice to provide three biological replicates.
Data analysis including the estimation of fold changes was performed as described above. Fold change values for PIM-3 were obtained by comparing the compound treated samples against the untreated controls for each time point.

Pim-3 [2] = assay: Gene expression of Pim-3 in epididymal adipose tissue of ZDF rats treated with anti-diabetic drugs (PPARγ agonists); type: in vivo, rat; details: ZDF rats 20 weeks old, 3 mg/kg/day for 14 weeks, single animals Rosi 1-5 vs ZDF 1-5
Method: (§1) Zucker Diabetic Fatty (ZDF/Gmi.TM.−fa/fa) male rats as well as their lean fa+/fa− counterparts, aged 5 weeks (control 1-5, ZDF 1-10)were obtained from Genetic Models Inc. (Indianapolis, Ind.). The rats were given free access to food and water. The ZDF animals were split into 2 groups: group 1(animals ZDF 1-5) was not treated with any agent, whereas the second group was treated for 14 weeks with the antidiabetic drug Rosiglitazone (3 mg/kg/day, animals 6-10, Rosi 1-5,). For the collection of epididymal fat pads and also blood samples, in each case 5 animals were sacrificed by cervical dislocation. To monitor the success of the antidiabetic treatment, HbA1c as marker of long-term blood glucose levels were measured by standard methods after finishing of the experiment.
Collection of epididymal adipose tissue, RNA isolation and Affymetrix experiments were performed as described in experiment 1. Data analysis included the comparison of expression data of samples derived from the lean control animals versus the untreated ZDF rats as well as the comparison of the expression data derived from Rosiglitazone treated ZDF animals versus non-treated ZDF animals. […] Fold changes of gene expression for Pim-3 were analyzed using the Affymetlrix qualifier AF086624_S_AT.

ZDF rats = assay: HbA1c as marker of long-term blood glucose in ZDF rats treated with Rosiglitazone; type: in vivo, rat; details: ZDF rats treated 14 weeks, 3 mg/kg/day, single animals R1-R5
Method: as §1

[3] = 1 μM, 6 hours, Table 6a (replicate 1)
[4] = 1 μM, 6 hours, Table b (replicate 2)
[5] = 1 μM, 6 hours, Table c (replicate 3)
[6] = 1 μM, 24 hours, Table 6a (replicate 1)
[7] = 1 μM, 24 hours, Table b (replicate 2)
[8] = 1 μM, 24 hours, Table c (replicate 3)
[9] = 1 μM, 48 hours, Table 6a (replicate 1)
[10] = 1 μM, 48 hours, Table b (replicate 2)
[11] = 1 μM, 48 hours, Table c (replicate 3)
[12] = 5 μM, 6 hours, Table 6a (replicate 1)
[13] = 5 μM, 6 hours, Table b (replicate 2)
[14] = 5 μM, 6 hours, Table c (replicate 3)
[15] = 5 μM, 24 hours, Table 6a (replicate 1)
[16] = 5 μM, 24 hours, Table b (replicate 2)
[17] = 5 μM, 24 hours, Table c (replicate 3)
[18] = 5 μM, 48 hours, Table 6a (replicate 1)
[19] = 5 μM, 48 hours, Table b (replicate 2)
[20] = 5 μM, 48 hours, Table c (replicate 3)

SMILES: Cc1c(C)c2c(c(C)c1O)CCC(C)(COc1ccc(CC3SC(=O)NC3=O)cc1)O2 (centres unmarked) [Tro, troglitazone]
- Fold change (PIM-3 gene expression vs DMSO control) (PIM-3 [1]; [3]): 1.7
- Fold change (PIM-3 gene expression vs DMSO control) (PIM-3 [1]; [4]): 1.7
- Fold change (PIM-3 gene expression vs DMSO control) (PIM-3 [1]; [5]): 1.8
- Fold change (PIM-3 gene expression vs DMSO control) (PIM-3 [1]; [6]): 1.8
- Fold change (PIM-3 gene expression vs DMSO control) (PIM-3 [1]; [7]): 1.6
- Fold change (PIM-3 gene expression vs DMSO control) (PIM-3 [1]; [8]): 1.6
- Fold change (PIM-3 gene expression vs DMSO control) (PIM-3 [1]; [9]): 1.8
- Fold change (PIM-3 gene expression vs DMSO control) (PIM-3 [1]; [10]): 1.6
- Fold change (PIM-3 gene expression vs DMSO control) (PIM-3 [1]; [11]): 1.6
- Fold change (PIM-3 gene expression vs DMSO control) (PIM-3 [1]; [12]): 2.1
- Fold change (PIM-3 gene expression vs DMSO control) (PIM-3 [1]; [13]): 1.7
- Fold change (PIM-3 gene expression vs DMSO control) (PIM-3 [1]; [14]): 2.3
- Fold change (PIM-3 gene expression vs DMSO control) (PIM-3 [1]; [15]): 2.7
- Fold change (PIM-3 gene expression vs DMSO control) (PIM-3 [1]; [16]): 1.9
- Fold change (PIM-3 gene expression vs DMSO control) (PIM-3 [1]; [17]): 2.0
- Fold change (PIM-3 gene expression vs DMSO control) (PIM-3 [1]; [18]): 2.4
- Fold change (PIM-3 gene expression vs DMSO control) (PIM-3 [1]; [19]): 1.9
- Fold change (PIM-3 gene expression vs DMSO control) (PIM-3 [1]; [20]): 2.3

SMILES: CN(CCOc1ccc(CC2SC(=O)NC2=O)cc1)c1ccccn1 (centres unmarked) [Rosi, rosiglitazone]
- Fold change (PIM-3 gene expression vs DMSO control) (PIM-3 [1]; [3]): 2.1
- Fold change (PIM-3 gene expression vs DMSO control) (PIM-3 [1]; [4]): 1.5
- Fold change (PIM-3 gene expression vs DMSO control) (PIM-3 [1]; [5]): 2.0
- Fold change (PIM-3 gene expression vs DMSO control) (PIM-3 [1]; [6]): 2.9
- Fold change (PIM-3 gene expression vs DMSO control) (PIM-3 [1]; [7]): 2.2
- Fold change (PIM-3 gene expression vs DMSO control) (PIM-3 [1]; [8]): 1.9
- Fold change (PIM-3 gene expression vs DMSO control) (PIM-3 [1]; [9]): 2.6
- Fold change (PIM-3 gene expression vs DMSO control) (PIM-3 [1]; [10]): 2.0
- Fold change (PIM-3 gene expression vs DMSO control) (PIM-3 [1]; [11]): 2.1
- Fold change (PIM-3 gene expression vs DMSO control) (PIM-3 [1]; [12]): 2.2
- Fold change (PIM-3 gene expression vs DMSO control) (PIM-3 [1]; [13]): 1.3
- Fold change (PIM-3 gene expression vs DMSO control) (PIM-3 [1]; [14]): 2.2
- Fold change (PIM-3 gene expression vs DMSO control) (PIM-3 [1]; [15]): 2.9
- Fold change (PIM-3 gene expression vs DMSO control) (PIM-3 [1]; [16]): 1.9
- Fold change (PIM-3 gene expression vs DMSO control) (PIM-3 [1]; [17]): 1.3
- Fold change (PIM-3 gene expression vs DMSO control) (PIM-3 [1]; [18]): 2.6
- Fold change (PIM-3 gene expression vs DMSO control) (PIM-3 [1]; [19]): 1.9
- Fold change (PIM-3 gene expression vs DMSO control) (PIM-3 [1]; [20]): 2.0
- Fold change (Pim-3 gene expression, treated ZDF rats vs untreated ZDF rats) (Pim-3 [2]): 1.6 (2×) and 1.3 and 1.5 and 1.4
- HbA1c (%) (ZDF rats): 4.30% and 4.27% and 4.14% (2×) and 4.13%
